Measured values reported in US20230110689A1, “AGONIST COMBINATION” (Zealand Pharma A/S, priority 2020, published 2023).
Starred links: 1 amine or outer side, 2 acyl side, 3 side chain; linkers in the order of their positions; H or OH if unused. Non-standard residues stand in square brackets, D forms with d. Groups on a side chain read outwards from the residue. *: point of attachment. C18 diacid = O=C(O)CCCCCCCCCCCCCCCCC(=O)*; γGlu = O=C(O)[C@H](CCC(=O)[*:2])N[*:1]; Aib = CC(C)(N)C(=O)O

Legend:
Assay type in all cases: in vivo, C57BL/6J mice
[1] = tested on: Short Bowel Syndome (SBS) mice; assay: SBS mouse model: histological morphometry of intestine (mucosal height, bowel diameter); conditions: ICR mice, 30 nmol/kg once daily, vs sham
Source text: (§1) Adult, male C57BL/6J mice with ˜30 g body weight of ˜4 months, received a 12-cm ileum and cecum resection (ICR) with jejunocolonic anastomosis (see FIG. 1, middle). The mice were then randomly assigned to either Cpd 18 or vehicle treatment As control for the abdominal surgery, the sham group was included which had laparotomy, bowel exposure, transection and end-to-end anastomosis but no resection (see FIG. 1, bottom). To prevent intestinal obstruction, all mice were switched to liquid diet 2 days before surgery and maintained on this diet until the end of the experiment. Throughout the experiment, animals were singly housed. All mice were studied with the intention to survive to day 14.
Briefly, mice were anesthetized by i.p. injection of ketamine (100 mg/kg bw) and xylazine (15 mg/kg bw) and orally intubated and ventilated. […] The resected bowel was removed, and the length of the specimen was measured. […]
(§2) Mice were scored for wellbeing daily as described (Berlin et al. 2019). If the wellness score dropped to below 4 pts, or when weight loss exceeded 20%, the mouse was immediately killed and not analyzed further. […]
Sham and SBS mice were prepared as described under Preparation of Short Bowel Syndome (SBS) mice. […] Bowel diameter was measured from the same samples from serosa to serosa in two dimensions. […]

[2] = tested on: Short Bowel Syndome (SBS) mice; assay: Short bowel syndrome (SBS) mouse model: post operative survival, body weight and dietary intake; conditions: ICR mice
Source text: as §1
(§3) Briefly, mice were anesthetized by i.p. injection of ketamine (100 mg/kg bw) and xylazine (15 mg/kg bw) and orally intubated and ventilated. After midline incision, the distal small bowel and the cecum were exposed and then transected 12 cm proximal to the ileocecal junction and immediately distal to the cecum. The resected bowel was removed, and the length of the specimen was measured. An end-to-end, jejuno-colonic anastomosis was created and the abdomen was closed. In the sham group, laparotomy, bowel exposure, transection and end-to-end anastomosis but no resection was performed. Immediately after surgery, all mice were weighed and received 1 ml isotonic saline subcutaneously and carprofen 5 mg/kg body weight. All surgical procedures were performed by the same surgeon. Mice were kept in a heated terrarium (29° C.) for 4 h and then returned to individual cages with free access to liquid food and water. The liquid diet was provided in feeding tubes. Mice were allowed to recover for a day after surgery, and then injected once daily with 30 nmol/kg body weight of Cpd 18. […]
as §2
Body weight (FIG. 6) and food consumption (FIG. 7) was measured daily. […]

[3] = tested on: Short Bowel Syndome (SBS) mice; assay: SBS mouse model: gross morphology / length of intestine on day 14; conditions: ICR mice, 30 nmol/kg once daily, FIG. 16
Source text: as §1
Briefly, mice were anesthetized by i.p. injection of ketamine (100 mg/kg bw) and xylazine (15 mg/kg bw) and orally intubated and ventilated. After midline incision, the distal small bowel and the cecum were exposed and then transected 12 cm proximal to the ileocecal junction and immediately distal to the cecum. The resected bowel was removed, and the length of the specimen was measured. An end-to-end, jejuno-colonic anastomosis was created and the abdomen was closed. […]
as §2

[4] = tested on: Short Bowel Syndome (SBS) mice; assay: SBS mouse model: jejunum weight (wet weight, dry weight, water content per 2 cm); conditions: ICR mice, 30 nmol/kg once daily
Source text: as §1
as §3, with “tubes.” for “tubes. Mice were allowed to recover for a day after surgery, and then injected once daily with 30 nmol/kg body weight of Cpd 18.”
as §2
Sham and SBS mice were prepared as described under Preparation of Short Bowel Syndome (SBS) mice. […] Water content and dry weight was then derived and calculated.

H-H[Aib]EGSFTSELATILDK([γGlu-C18 diacid])QAARDFIAWLIQHKITD-OH [Cpd 18]
mucosal height ([1]; day 14, crypt base to villus tip, FIG. 8): approximately double the mucosal height of sham treated animals
bowel diameter ([1]; day 14, serosa to serosa, FIG. 9): approximately double the bowel diameter of sham treated animals
survival rate after 14 days ([2]; 30 nmol/kg body weight once daily from day 1 after surgery, FIG. 5): 74%
dietary intake ([2]; 30 nmol/kg once daily, liquid diet, measured daily, vs vehicle, FIG. 7): lower in the Cpd 18 treated animals from day 2 onwards as compared to vehicle
relative body weight (relative to initial weight) ([2]; 30 nmol/kg once daily, measured daily to day 14, vs vehicle, FIG. 6): differed from the vehicle group after six days onwards by starting to increase towards the initial weight
bowel length and thickness ([3]; day 14, representative example vs sham): An increase in bowel length and thickness
solid feces in intestine ([3]; day 14, representative example, absent in vehicle): solid feces in the sham and Cpd 18 treated intestine
dry weight per 2 cm of intestine ([4]; day 14, desiccated sections, FIG. 11): the same increases in mass were measured
wet weight of 2 cm sections of intestine ([4]; day 14, proximal jejunum, FIG. 10): 73 mg
percentage of water content per 2 cm of intestine ([4]; day 14, FIG. 12): each group had an equal water content of the intestine
